Key:
NCI-H460 = assay: NCI anticancer screen, NCI-H460; assay type: cell-based, human; conditions: NCI-H460, Non-Small Cell Lung, 48 h
PC-3 = assay: NCI anticancer screen, PC-3; assay type: cell-based, human; conditions: PC-3, Prostate, 48 h
786-0 = assay: NCI anticancer screen, 786-0; assay type: cell-based, human; conditions: 786-0, Renal, 48 h
SK-MEL-28 = assay: NCI anticancer screen, SK-MEL-28; assay type: cell-based, human; conditions: SK-MEL-28, Melanoma, 48 h
SNB-19 = assay: NCI anticancer screen, SNB-19; assay type: cell-based, human; conditions: SNB-19, CNS, 48 h
NCI-H226 = assay: NCI anticancer screen, NCI-H226; assay type: cell-based, human; conditions: NCI-H226, Non-Small Cell Lung, 48 h
A498 = assay: NCI anticancer screen, A498; assay type: cell-based, human; conditions: A498, Renal, 48 h
EKVX = assay: NCI anticancer screen, EKVX; assay type: cell-based, human; conditions: Non-Small Cell Lung, 48 h
LOX IMVI = assay: NCI anticancer screen, LOX IMVI; assay type: cell-based, human; conditions: Melanoma, 48 h
HCC-2998 = assay: NCI anticancer screen, HCC-2998; assay type: cell-based, human; conditions: HCC-2998, Colon, 48 h
wildtype human PAI-1 = target: T1, wildtype human PAI-1 (Homo sapiens, UniProt P05121); assay: PAI-1/uPA assay (residual uPA activity, fluorescent substrate SpectroFluor); assay type: biochemical; conditions: for Percent PAI-1 inhibition: at the concentration given, percent of activity of untreated PAI-1; for Conc. of compound required for PAI-1 inhibition: concentration giving the percent inhibition, 6 nM PAI-1, 8 nM uPA
T1 construct: purchased Molecular Innovations Lot# HWT-804
T1 sequence (P05121 24-402): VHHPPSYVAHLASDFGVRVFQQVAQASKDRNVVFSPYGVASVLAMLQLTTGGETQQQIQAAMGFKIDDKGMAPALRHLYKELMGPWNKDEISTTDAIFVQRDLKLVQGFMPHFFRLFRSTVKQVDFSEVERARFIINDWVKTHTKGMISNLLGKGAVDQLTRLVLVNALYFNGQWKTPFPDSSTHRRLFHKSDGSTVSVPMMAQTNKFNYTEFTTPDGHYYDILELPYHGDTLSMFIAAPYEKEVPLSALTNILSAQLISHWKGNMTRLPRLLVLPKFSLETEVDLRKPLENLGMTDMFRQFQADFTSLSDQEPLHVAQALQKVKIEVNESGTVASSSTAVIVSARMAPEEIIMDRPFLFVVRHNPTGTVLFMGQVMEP
In short: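 Wildtype human PAI-1 (6 nM) preincubated 15-20 min at RT with compound (10 nM to 100 μM final) in HEPES buffer pH 6.6, then with uPA (8 nM, HMW) 5 min. SpectroFluor (0.1 mM) cleavage followed 30 min at 37 °C (ex 360/em 440 nm); PAI-1 activity expressed as % of untreated PAI-1.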

RXF 393 = assay: NCI anticancer screen, RXF 393; assay type: cell-based, human; conditions: RXF 393, Renal, 48 h
TK-10 = assay: NCI anticancer screen, TK-10; assay type: cell-based, human; conditions: TK-10, Renal, 48 h
ACHN = assay: NCI anticancer screen, ACHN; assay type: cell-based, human; conditions: Renal, 48 h
OVCAR-3 = assay: NCI anticancer screen, OVCAR-3; assay type: cell-based, human; conditions: OVCAR-3, Ovarian, 48 h
MOLT-4 = assay: NCI anticancer screen, MOLT-4; assay type: cell-based, human; conditions: MOLT-4, Leukemia, 48 h
OVCAR-4 = assay: NCI anticancer screen, OVCAR-4; assay type: cell-based, human; conditions: OVCAR-4, Ovarian, 48 h
UO-31 = assay: NCI anticancer screen, UO-31; assay type: cell-based, human; conditions: UO-31, Renal, 48 h
SW-620 = assay: NCI anticancer screen, SW-620; assay type: cell-based, human; conditions: SW-620, Colon, 48 h
OVCAR-5 = assay: NCI anticancer screen, OVCAR-5; assay type: cell-based, human; conditions: OVCAR-5, Ovarian, 48 h
HL-60(TB) = assay: NCI anticancer screen, HL-60(TB); assay type: cell-based, human; conditions: Leukemia, 48 h
SF-268 = assay: NCI anticancer screen, SF-268; assay type: cell-based, human; conditions: SF-268, CNS, 48 h
SNB-75 = assay: NCI anticancer screen, SNB-75; assay type: cell-based, human; conditions: SNB-75, CNS, 48 h
[1] = Homo sapiens, read-out: LC50 (the source's name)

`CCOC(=O)c1ccc(CNCc2cc(CN3CCN(c4ccccn4)CC3)c(O)c(OC)c2)cc1` [Compound Q012135T] showed a GI50 (NCI-H460; Homo sapiens) of 20.2 µM, a CC50 (NCI-H460; [1]) of 70.4 µM and a TGI (NCI-H460) of 37.7 µM. The GI50 (PC-3; Homo sapiens) was 17.9 µM, the CC50 (PC-3; [1]) was > 100 µM and the TGI (PC-3) was 45.4 µM. The TGI (786-0) was 31.0 µM, the GI50 (786-0; Homo sapiens) was 16.2 µM and the CC50 (786-0; [1]) was 59.2 µM. For the same compound, the GI50 (SK-MEL-28; Homo sapiens) was 15.1 µM, the CC50 (SK-MEL-28; [1]) was 57.4 µM and the TGI (SK-MEL-28) was 29.5 µM. The GI50 (SNB-19; Homo sapiens) was 33.1 µM, the CC50 (SNB-19; [1]) was > 100 µM and the TGI (SNB-19) was >100 µM. The GI50 (NCI-H226; Homo sapiens) was 19.8 µM, the LC50 (concentration giving 50% net cell kill) (NCI-H226; Homo sapiens) was 91.5 µM and the TGI (NCI-H226) was 42.6 µM. For the same compound, the TGI (A498) was 51.4 µM, the GI50 (A498; Homo sapiens) was 25.8 µM and the CC50 (A498; [1]) was > 100 µM. For the same compound, the GI50 (EKVX; Homo sapiens) was 21.3 µM, the CC50 (EKVX; [1]) was > 100 µM and the TGI (EKVX) was 62.1 µM. The GI50 (LOX IMVI; Homo sapiens) was 15.8 µM, the LC50 (concentration giving 50% net cell kill) (LOX IMVI; Homo sapiens) was 63.4 µM and the TGI (LOX IMVI) was 31.7 µM. It also gave a TGI (HCC-2998) of 31.6 µM, a GI50 (HCC-2998; Homo sapiens) of 15.3 µM and an LC50 (HCC-2998; Homo sapiens) of 65.1 µM. The “Percent PAI-1 inhibition” value (wildtype human PAI-1) was 8, the “Conc. of compound required for PAI-1 inhibition” value (wildtype human PAI-1) was 100 µM and the GI50 (RXF 393; Homo sapiens) was 18.8 µM. For the same compound, the CC50 (RXF 393; [1]) was 84.5 µM, the TGI (RXF 393) was 39.9 µM and the GI50 (TK-10; Homo sapiens) was 20.6 µM. For the same compound, the CC50 (TK-10; [1]) was > 100 µM, the TGI (TK-10) was 46.3 µM and the GI50 (ACHN; Homo sapiens) was 29.9 µM. The CC50 (ACHN; [1]) was > 100 µM, the TGI (ACHN) was >100 µM and the GI50 (OVCAR-3; Homo sapiens) was 14.1 µM. For the same compound, the CC50 (OVCAR-3; [1]) was 61.2 µM, the TGI (OVCAR-3) was 29.4 µM and the GI50 (MOLT-4; Homo sapiens) was 10.1 µM. For the same compound, the CC50 (MOLT-4; [1]) was 10.1 µM, the TGI (MOLT-4) was 31.3 µM and the GI50 (OVCAR-4; Homo sapiens) was 18.6 µM. For the same compound, the CC50 (OVCAR-4; [1]) was 98 µM, the TGI (OVCAR-4) was 42.7 µM and the GI50 (UO-31; Homo sapiens) was 11.5 µM. For the same compound, the CC50 (UO-31; [1]) was 61.6 µM, the TGI (UO-31) was 26.6 µM and the GI50 (SW-620; Homo sapiens) was 18.5 µM. It also gave a CC50 (SW-620; [1]) of 68 µM, a TGI (SW-620) of 35.5 µM and a GI50 (OVCAR-5; Homo sapiens) of 23.4 µM. It also gave a CC50 (OVCAR-5; [1]) of 91.7 µM, a TGI (OVCAR-5) of 46.3 µM and a GI50 (HL-60(TB); Homo sapiens) of 13.1 µM. The CC50 (HL-60(TB); [1]) was 13.1 µM, the TGI (HL-60(TB)) was 33.7 µM and the GI50 (SF-268; Homo sapiens) was 19.1 µM. For the same compound, the LC50 (SF-268; Homo sapiens) was 71.1 µM, the TGI (SF-268) was 36.9 µM and the GI50 (SNB-75; Homo sapiens) was 17.6 µM. The LC50 (concentration killing 50% of cells) (SNB-75; Homo sapiens) was 59.2 µM and the TGI (SNB-75) was 32.2 µM.

`COc1cc(CNc2ccc(C(=O)OC(C)(C)C)cc2)cc(CN2CCN(c3ccccn3)CC2)c1O` [Compound Q012145T] was tested, and the GI50 (NCI-H460; Homo sapiens) was 21.9 µM, the GI50 (PC-3; Homo sapiens) was 23.5 µM and the GI50 (786-0; Homo sapiens) was 48.6 µM. The GI50 (SK-MEL-28; Homo sapiens) was > 100 µM, the GI50 (SNB-19; Homo sapiens) was > 100 µM and the GI50 (NCI-H226; Homo sapiens) was > 100 µM. For the same compound, the GI50 (A498; Homo sapiens) was 16.2 µM, the GI50 (EKVX; Homo sapiens) was 51.5 µM and the GI50 (LOX IMVI; Homo sapiens) was 60.4 µM. For the same compound, the GI50 (HCC-2998; Homo sapiens) was > 100 µM, the “Conc. of compound required for PAI-1 inhibition (result in words)” value (wildtype human PAI-1; within the concentration range tested) was “No inhibition” and the GI50 (RXF 393; Homo sapiens) was 80.3 µM. For the same compound, the GI50 (TK-10; Homo sapiens) was 70.4 µM, the GI50 (ACHN; Homo sapiens) was > 100 µM and the GI50 (OVCAR-3; Homo sapiens) was 37.5 µM. For the same compound, the GI50 (MOLT-4; Homo sapiens) was 13 µM, the GI50 (OVCAR-4; Homo sapiens) was 46.9 µM and the GI50 (UO-31; Homo sapiens) was 67.2 µM. The GI50 (SW-620; Homo sapiens) was 63.7 µM, the GI50 (OVCAR-5; Homo sapiens) was > 100 µM and the GI50 (HL-60(TB); Homo sapiens) was 12.4 µM. The GI50 (SF-268; Homo sapiens) was 61.5 µM and the GI50 (SNB-75; Homo sapiens) was > 100 µM.

For `CC(C)(C)OC(=O)Nc1ccc(O)c(C(=O)NCCOC(=O)NCCNC(=O)c2cc(OCc3ccccc3)ccc2OCc2ccccc2)c1` [Compound Q012052, 2-[5-(BOC-amino)-2-hydroxybenzoylamino]ethyl 2-[2,5-bis-(benzyl-oxy)benzoylamino]ethylcarbamate], the GI50 (NCI-H460; Homo sapiens) was > 100 µM, the GI50 (PC-3; Homo sapiens) was 24.9 µM and the GI50 (786-0; Homo sapiens) was > 100 µM. The GI50 (SK-MEL-28; Homo sapiens) was > 100 µM, the GI50 (SNB-19; Homo sapiens) was > 100 µM and the GI50 (NCI-H226; Homo sapiens) was > 100 µM. The GI50 (A498; Homo sapiens) was > 100 µM, the GI50 (EKVX; Homo sapiens) was 35.1 µM and the GI50 (LOX IMVI; Homo sapiens) was > 100 µM. For the same compound, the GI50 (HCC-2998; Homo sapiens) was > 100 µM, the “Percent PAI-1 inhibition” value (wildtype human PAI-1) was 45 and the “Conc. of compound required for PAI-1 inhibition” value (wildtype human PAI-1) was 0.05 µM. The GI50 (RXF 393; Homo sapiens) was > 100 µM, the GI50 (TK-10; Homo sapiens) was > 100 µM and the GI50 (ACHN; Homo sapiens) was > 100 µM. The GI50 (OVCAR-3; Homo sapiens) was > 100 µM, the GI50 (MOLT-4; Homo sapiens) was 4.05 µM and the GI50 (OVCAR-4; Homo sapiens) was 29.1 µM. For the same compound, the GI50 (UO-31; Homo sapiens) was 19.9 µM, the GI50 (SW-620; Homo sapiens) was > 100 µM and the GI50 (OVCAR-5; Homo sapiens) was > 100 µM. For the same compound, the GI50 (HL-60(TB); Homo sapiens) was > 100 µM, the GI50 (SF-268; Homo sapiens) was > 100 µM and the GI50 (SNB-75; Homo sapiens) was 68.9 µM.
